# Measurements from patent publication US10307352B2, “Low oil compositions comprising a 4-substituted resorcinol and a high carbon chain ester” (Johnson & Johnson Consumer Inc., priority 2012, dated 2019).
# Test system: IL-8 cytokine release
# Test: IL-8 assay: TNFα-induced IL-8 cytokine release from topically treated epidermal equivalents (EPI 200 HCF)
# Assay type: cell-based, human
# Details: ester added to 4-hexyl resorcinol-containing composition; result in words
# Method: An IL-8 assay was performed on the compositions of Example I to investigate the release of pro-inflammatory mediators in human epithelial cells as follows.
# Epidermal equivalents (EPI 200 HCF), multilayer and differentiated epidermis consisting of normal human epidermal keratinocytes, were purchased from MatTek (Ashland, Mass.). Upon receipt, epidermal equivalents were incubated for 24 hours at 37° C. in maintenance medium without hydrocortisone. Equivalents were topically treated (2 mg/cm^2) with formulation in example 1 for 2 hours before exposure to 100 ng/mL of Tumor Necrosis Factor-α (TNFα, available from Sigma-Aldrich of St Louis, Mo.). Equivalents were incubated for 4 hours at 37° C. with maintenance medium then supernatants were analyzed for IL-8 cytokine release using commercially available kits (Upstate Biotechnology, Charlottesville, Va.). Percent Reduction in IL-8 was calculated for the compositions relative to Comparative Composition C1 (without ester): Percent Reduction=[1−(Valuesample/Valuebase)]×100 where Valuesample was the IL-8 level of the composition tested and Valuebase was the IL-8 value of Comparative Composition C1.
# Additional IL-8 Assays were performed as described in Example II. Compositions (described in Table 2) containing 4-hexyl resorcinol with different esters, each present at 3% by weight, were compared with Composition 6 according to the invention containing 3% by weight pentaerythritol tetraethylhexanoate.
row,Compound,boost in the activity (IL-8 inhibition) of 4-hexyl resorcinol over compositions without the ester
1,CCCCCCC(=O)OCC(C)(C)COC(=O)CCCCCC [neopentyl glycol diheptanoate],only a modest boost or no boost at all
2,CCCCC(CC)C(=O)OCC(COC(=O)C(CC)CCCC)(COC(=O)C(CC)CCCC)COC(=O)C(CC)CCCC (stereo not shown) [pentaerythritol tetraethylhexanoate],substantial boost
3,isononyl isonanoate,only a modest boost or no boost at all
4,octyldodecyl neopentanoate,substantial boost
